We go through ten compounds from PubChem BioAssay (NCI).

Some test systems named below: DU-145 prostate; NCI-H460 lung; OVCAR-8 ovarian; M14 melanoma; MCF7 breast; CAKI-1 renal; HCT-15 colon; HCC-2998 colon; NCI-H23 lung; COLO 205 colon.
Experiment in all cases: NCI tumour cell line growth inhibition, 48 h

Each structure is given as a SMILES string.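 Cells were grown in 96-well plates and exposed to each compound for 48 hours at five concentrations; endpoints were interpolated linearly between bracketing concentrations, or set to the highest concentration if not reached. Abbreviation: GI50, concentration required for 50% inhibition of growth. TGI denotes the concentration required for complete inhibition of growth.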 Bounds are passed on as bounds.

Consider `C=C(C)C1CCC2(C(=O)O)CCC3(C)C(CCC4C5(C)CCC(OC(=O)NCc6ccccc6)C(C)(C)C5CCC43C)C12` (stereo not drawn), for which the GI50 in the assay on DU-145 prostate is 4.14 µM; in the assay on NCI-H460 lung, 3.14 µM; with OVCAR-8 ovarian, 7.29 µM; in the assay on M14 melanoma, 5.98 µM; with MCF7 breast it was 4.08 µM; with CAKI-1 renal, 1.63 µM. Also, the GI50 is 3.74 µM in the assay with HCT-15 colon, 2.8 µM in the assay on HCC-2998 colon, 2.31 µM with NCI-H23 lung and 1.82 µM with COLO 205 colon. The TGI with DU-145 prostate is 35.2 µM; in the assay with NCI-H460 lung it was 16.5 µM; with OVCAR-8 ovarian, more than 100 µM; in the assay with M14 melanoma it was more than 100 µM; with MCF7 breast, more than 100 µM; in the assay on CAKI-1 renal it was 15.7 µM. Also, the TGI in the assay on HCT-15 colon was more than 100 µM; in the assay on HCC-2998 colon, more than 100 µM; with NCI-H23 lung, 44 µM; in the assay with COLO 205 colon it was 5.44 µM.

As to `N#Cc1cccc(NC(=O)c2cc(-c3ccc(F)cc3F)ccc2O)c1`, the GI50 with DU-145 prostate was 3.26 µM; in the assay on NCI-H460 lung, 2.75 µM; in the assay with OVCAR-8 ovarian it was 2.88 µM; in the assay with M14 melanoma, 1.94 µM; in the assay with MCF7 breast, 2.15 µM; in the assay with CAKI-1 renal it was 2.31 µM. Further, the GI50 was 2.74 µM in the assay with HCT-15 colon, 2.97 µM with HCC-2998 colon, 1.43 µM in the assay on NCI-H23 lung and 10.9 µM with COLO 205 colon. The TGI was more than 100 µM in the assay with DU-145 prostate; 11.2 µM in the assay with NCI-H460 lung; more than 100 µM with OVCAR-8 ovarian; 7.84 µM in the assay on M14 melanoma; 9.72 µM in the assay with MCF7 breast; 10.1 µM in the assay with CAKI-1 renal. Besides, the TGI came to 11.4 µM in the assay on HCT-15 colon, 10.1 µM in the assay on HCC-2998 colon, 4.35 µM in the assay with NCI-H23 lung and 28.2 µM in the assay on COLO 205 colon.

`O=C1OC(c2ccco2)=N/C1=C\c1cccc([N+](=O)[O-])c1`: the TGI in the assay on DU-145 prostate, in the assay on NCI-H460 lung, in the assay on OVCAR-8 ovarian, in the assay on M14 melanoma, with MCF7 breast and in the assay with CAKI-1 renal was more than 100 µM each time. In addition, the TGI in the assay on HCT-15 colon, in the assay with HCC-2998 colon, with NCI-H23 lung and in the assay on COLO 205 colon was more than 100 µM throughout.

As for `C/C(=N\Nc1ccc(Cl)cn1)c1ccccn1`, the GI50 with DU-145 prostate is 0.161 µM; in the assay with NCI-H460 lung, 0.268 µM; in the assay with OVCAR-8 ovarian, 0.0704 µM; with MCF7 breast it was 0.0989 µM; in the assay on CAKI-1 renal, 0.0452 µM; in the assay with HCT-15 colon, 0.0658 µM. Moreover, the GI50 is 0.554 µM in the assay with HCC-2998 colon, 0.0674 µM in the assay on NCI-H23 lung and 0.0227 µM in the assay with COLO 205 colon. Besides, the TGI in the assay with DU-145 prostate was more than 100 µM; in the assay with NCI-H460 lung it was 11.2 µM; with OVCAR-8 ovarian it was more than 100 µM; in the assay on MCF7 breast it was more than 100 µM; in the assay with CAKI-1 renal, 2.64 µM; in the assay with HCT-15 colon, more than 50.4 µM. The TGI in the assay on HCC-2998 colon was 68.2 µM; with NCI-H23 lung it was more than 100 µM; in the assay with COLO 205 colon, 36.7 µM.

In the case of `Cc1ccc(C(=O)Nc2ccc(CN3CCN(C)CC3)c(C(F)(F)F)c2)cc1C#Cc1cnc(N)c2ccccc12`, the GI50 with DU-145 prostate was 0.167 µM; in the assay on NCI-H460 lung it was 0.32 µM; in the assay on OVCAR-8 ovarian, 0.476 µM; in the assay with M14 melanoma it was 0.134 µM; with MCF7 breast it was 0.799 µM; in the assay on CAKI-1 renal it was 0.328 µM. Besides, the GI50 in the assay with HCT-15 colon was 0.142 µM; in the assay with HCC-2998 colon, 0.738 µM; in the assay on NCI-H23 lung, 0.799 µM; with COLO 205 colon it was 0.655 µM. The TGI in the assay on DU-145 prostate was determined as 0.861 µM; in the assay on NCI-H460 lung, 1.08 µM; in the assay with OVCAR-8 ovarian, 2.09 µM; in the assay on M14 melanoma it was 0.701 µM; in the assay with MCF7 breast, 1.61 µM; with CAKI-1 renal, 1.05 µM. In addition, the TGI in the assay with HCT-15 colon was determined as 0.849 µM; in the assay with HCC-2998 colon, 1.56 µM; with NCI-H23 lung, 1.76 µM; in the assay on COLO 205 colon, 1.62 µM.

On to `CO[C@H]1C=C[C@@]23c4cc5c(cc4CO[C@]2(O)CN(C)[C@H]3C1)OCO5`, for which the TGI in the assay on DU-145 prostate, with NCI-H460 lung, in the assay with OVCAR-8 ovarian, in the assay on M14 melanoma, in the assay with MCF7 breast and in the assay with CAKI-1 renal was more than 100 µM throughout. For the same compound, the TGI in the assay with HCT-15 colon, in the assay with HCC-2998 colon, in the assay on NCI-H23 lung and with COLO 205 colon was more than 100 µM in each case.

As to `Nc1ncn(C2CC(O)C(CO)O2)c(=O)n1` (stereo not drawn), the TGI is more than 375 µM with DU-145 prostate; more than 375 µM in the assay with NCI-H460 lung; 370 µM in the assay on OVCAR-8 ovarian; more than 375 µM with M14 melanoma; more than 375 µM in the assay on MCF7 breast; more than 375 µM in the assay with CAKI-1 renal. Besides, the TGI in the assay with HCT-15 colon is more than 302 µM; in the assay on HCC-2998 colon it was more than 375 µM; in the assay with NCI-H23 lung, more than 375 µM; with COLO 205 colon it was more than 298 µM.

For `COC(=O)C(NC(=O)c1ccccc1)c1ccco1` (stereo not drawn), the TGI with DU-145 prostate, in the assay with NCI-H460 lung, in the assay on OVCAR-8 ovarian, in the assay with M14 melanoma, in the assay with MCF7 breast and with HCT-15 colon was more than 100 µM each time. The TGI in the assay on HCC-2998 colon and with NCI-H23 lung was more than 100 µM each time.

`CCCCN1CSC(=S)N(Cc2ccccc2)C1`: the TGI is more than 100 µM with DU-145 prostate; more than 94.3 µM in the assay on NCI-H460 lung; more than 100 µM in the assay with OVCAR-8 ovarian; more than 100 µM with M14 melanoma; more than 100 µM in the assay on MCF7 breast; more than 100 µM with CAKI-1 renal. Besides, the TGI with HCT-15 colon was more than 100 µM; in the assay on NCI-H23 lung it was more than 100 µM; with COLO 205 colon, 50.6 µM.

Regarding `COc1ccc(C2SCC(=O)N2NC(=O)Nc2c(C)nc3ccccn23)cc1` (stereo not drawn), the GI50 was 44.9 µM in the assay on DU-145 prostate; 90.5 µM in the assay on NCI-H460 lung; 40.2 µM in the assay on OVCAR-8 ovarian; more than 100 µM with M14 melanoma; 75.7 µM in the assay with MCF7 breast; more than 100 µM in the assay on CAKI-1 renal. The GI50 in the assay on HCT-15 colon, in the assay with HCC-2998 colon and with COLO 205 colon was more than 100 µM each time. Besides, the TGI in the assay on DU-145 prostate, in the assay with NCI-H460 lung, with OVCAR-8 ovarian, in the assay with M14 melanoma, with MCF7 breast and with CAKI-1 renal was more than 100 µM throughout. In addition, the TGI in the assay with HCT-15 colon, in the assay with HCC-2998 colon and in the assay with COLO 205 colon was more than 100 µM throughout.
